Experimental data published in patent US8420119B2, “Drug composition for treating tumor with polymeric micelle encapsulating anti-neoplastic” (Industrial Technology Research Institute, priority 2009, dated 2013).
In brackets after ≈: the same amount, converted by molar mass.

How the values were obtained:
[1] = Release test using dialysis bag; format: physicochemical; conditions: dialysis against PBS pH 7.4, 37° C.
Description: A 50 μL solution of a pharmaceutical composition, which was prepared according to the method as set forth above, was added into a dialysis bag having a molecular weight cutoff of about 3,500 Daltons, and then was dialyzed against a 50 ml phosphate buffered saline (PBS) (pH 7.4) at 37° C. After 1, 2, 4, and 8 hours of dialysis, 250 μL out-of-bag buffers were taken respectively, and then each was then mixed with 750 μL methanol (in 0.6N HCl). The quantity of each drug, which was released from the polymeric micelle and then dialyzed into the out-of-bag buffer, was determined by HPLC. A 50 μL CPT containing DMSO solution (CPT-DMSO) was used as a control.

[2] = Direct dilution test (remained lactone form); format: physicochemical; conditions: PBS pH 7.4, 37° C.
Description: A 150 μL solution of a pharmaceutical composition in accordance with the present disclosure, which was prepared according to the method as set forth above, was mixed with 1350 μL of PBS (pH 7.4), and then incubated at 37° C. After 1, 2, 4, and 8 hours of incubation, 10 μL incubated solutions were taken respectively, and each was mixed with 990 μL of methanol. The quantity of lactone form CPT or SN38 in the mixtures was determined by HPLC. A 150 μL CPT containing DMSO solution (CPT-DMSO) was used as a control.

[3] = In vivo kinetic test of CPT; parameters: species or system SD mice; conditions: SD, mouse, plasma
Description: The concentrations of lactone form CPT in bloods over the time were then determined by HPLC.
(§1) T1/2 (hr), AUCINF(hr*ng/ml), CL(mL/hr/kg), and Vss (mL/kg) in Table 2 represent half-life time, area under the curve to infinity, clearance, and volume of distribution at steady state, and the units thereof, respectively. The n represents sample number. These parameters can be measured and/or calculated according to the techniques known in the art.

[4] = In vivo kinetic test of SN38; parameters: species or system SD mice; conditions: for lactone form SN38 in plasma: 4 mg/kg SN38 vein injection
Description: The concentrations of lactone form SN38 in bloods over the time were then determined by HPLC.
as §1, with “Table 7” for “Table 2”, “time, […],” for “time,”

A549 = assay: MTT assay A549; format: cell-based, human; conditions: Lung, A549, 72 hours
Description: (§2) Various human cancer lines, such as A549, AS2, and H460, were implanted onto multi-well plates and Dulbecco's Modified Eagle Media (high glucose) with 10% of fetal bovine serum and 1% of P/S being added to each well. […] Then a 20 μL of 0.5 mg/ml MTT (3-(4,5-dimethylthiazol-2-yl)-2,5-diphenyltetrazolium bromide) solution was added to each well to start the reaction. After 2 hours, the suspension of each well was removed and DMSO was added into the well to dissolve formazan, which was formed during the reaction. The living cell concentration was then obtained by analyzing the OD570 and OD600 data of each well.

AS2 = assay: MTT assay AS2; format: cell-based, human; conditions: Lung, AS2, 72 hours
Description: as §2

H460 = assay: MTT assay H460; format: cell-based, human; conditions: Lung, H460, 72 hours
Description: as §2

HT29 = assay: MTT assay HT29; format: cell-based, human; conditions: Colorectal, HT29, 72 hours
Description: as §2

Colo 205 = assay: MTT assay Colo 205; format: cell-based, human; conditions: Colorectal, Colo 205, 72 hours
Description: as §2

hepG2/C3A = assay: MTT assay hepG2/C3A; format: cell-based, human; conditions: Liver, 72 hours
Description: as §2

SK-HEP-1 = assay: MTT assay SK-HEP-1; format: cell-based, human; conditions: Liver, SK-HEP-1, 72 hours
Description: as §2

AGS = assay: MTT assay AGS; format: cell-based, human; conditions: Stomach, 72 hours
Description: as §2

PC-3 = assay: MTT assay PC-3; format: cell-based, human; conditions: Prostate, PC-3, 72 hours
Description: as §2

U-87 MG = assay: MTT assay U-87 MG; format: cell-based, human; conditions: Brain, 72 hours
Description: as §2

MCF-7 = assay: MTT assay MCF-7; format: cell-based, human; conditions: Breast, MCF-7, 72 hours
Description: as §2

OVCAR-3 = assay: MTT assay OVCAR-3; format: cell-based, human; conditions: Ovarian, OVCAR-3, 72 hours
Description: as §2

5637 = assay: MTT assay 5637; format: cell-based, human; conditions: Bladder, 5637, 72 hours
Description: as §2

RPMI2650 = assay: MTT assay RPMI2650; format: cell-based, human; conditions: Nasalseptum, RPMI2650, 72 hours
Description: as §2

SCC-25 = assay: MTT assay SCC-25; format: cell-based, human; conditions: Tongue, SCC-25, 72 hours
Description: as §2

[5] = iv, lactone form CPT, 1 mg/kg vein injection
[6] = plasma SN38, 4 mg/kg vein injection

CC[C@@]1(O)C(=O)OCc2c1cc1n(c2=O)Cc2cc3ccccc3nc2-1 [CPT-DMSO, camptothecin]
percentage of released CPT/SN38 ([1]; 1 hour): 48.2%
percentage of released CPT/SN38 ([1]; 2 hours): 73.9%
percentage of released CPT/SN38 ([1]; 4 hours): 87.2%
percentage of remained lactone form CPT and SN38 ([2]; 2 hours): 26.4%
percentage of remained lactone form CPT and SN38 ([2]; 4 hours): 18.1%
concentration at 0.25 h ([3]; intravenous, 0.25 hour, 1 mg/kg CPT vein injection, read-out: lactone form CPT in plasma): 19.4 ng/mL
concentration at 0.5 h ([3]; intravenous, 0.5 hour, 1 mg/kg CPT vein injection, read-out: lactone form CPT in plasma): 11.6 ng/mL
concentration at 1 h ([3]; intravenous, 1 hour, 1 mg/kg CPT vein injection, read-out: lactone form CPT in plasma): 3.1 ng/mL
concentration at 2 h ([3]; intravenous, 2 hours, 1 mg/kg CPT vein injection, read-out: lactone form CPT in plasma): 0.3 ng/mL
AUC(0-inf) [3, 5]: 16 ± 6 ng·h/mL
clearance [3, 5]: 1160 mL/min/kg
half-life [3, 5]: 15 ± 6 min
Vd ([3]; iv, lactone form CPT, 1 mg/kg vein injection, read-out: Vss): 23.9 ± 6.2 L/kg

CCc1c2c(nc3ccc(O)cc13)-c1cc3c(c(=O)n1C2)COC(=O)[C@]3(O)CC [SN38, 7-ethyl-10-hydroxycamptothecin]
lactone form SN38 in plasma ([4]; 0.1 Hour(s)): 710.8 ng/mL
lactone form SN38 in plasma ([4]; 0.2 Hour(s)): 505.3 ng/mL
lactone form SN38 in plasma ([4]; 0.3 Hour(s)): 265.3 ng/mL
lactone form SN38 in plasma ([4]; 0.500 Hour(s)): 143.4 ng/mL
lactone form SN38 in plasma ([4]; 1.0 Hour(s)): 32.3 ng/mL
lactone form SN38 in plasma ([4]; 2.0 Day(s)): 12.5 ng/mL
lactone form SN38 in plasma ([4]; 4.0 Day(s)): 9.0 ng/mL
lactone form SN38 in plasma ([4]; 8.0 Day(s)): 7.3 ng/mL
lactone form SN38 in plasma ([4]; 24.0 Day(s)): 1.0 ng/mL
AUCINF [4, 6]: 417 ng·h/mL
CL [4, 6]: 41.5 mL/min/kg
T1/2 [4, 6]: 372 min
Vss [4, 6]: 34.3 L/kg
IC50 (A549): 0.01387 ± 0.00123 µg/mL (≈ 0.0353 µM)
IC50 (AS2): 0.00176 ± 0.00023 µg/mL (≈ 0.00449 µM)
IC50 (H460): 0.00318 ± 0.00026 µg/mL (≈ 0.0081 µM)
IC50 (HT29): 0.0034 µg/mL (≈ 0.00866 µM)
IC50 (Colo 205): 0.00563 ± 0.00096 µg/mL (≈ 0.0143 µM)
IC50 (hepG2/C3A): 0.0287 ± 0.0092 µg/mL (≈ 0.0731 µM)
IC50 (SK-HEP-1): 0.01521 ± 0.00133 µg/mL (≈ 0.0388 µM)
IC50 (AGS): 0.04022 ± 0.01424 µg/mL (≈ 0.102 µM)
IC50 (PC-3): 0.0959 ± 0.02127 µg/mL (≈ 0.244 µM)
IC50 (U-87 MG): 0.01022 ± 0.0026 µg/mL (≈ 0.026 µM)
IC50 (MCF-7): 0.06093 ± 0.04886 µg/mL (≈ 0.155 µM)
IC50 (OVCAR-3): 0.02273 ± 0.00214 µg/mL (≈ 0.0579 µM)
IC50 5637: 0.00036 ± 3e-05 µg/mL (≈ 0.000917 µM)
IC50 (RPMI2650): 0.00097 ± 7e-05 µg/mL (≈ 0.00247 µM)
IC50 (SCC-25): 0.01971 ± 0.01128 µg/mL (≈ 0.0502 µM)
